Reference: the NIST ThermoML archive (doi:10.1021/je900938b)

What was measured:
[1] = 101.3 kPa, Liquid; for mass density: Pycnometric method
[2] = xn = mol fraction of the nth substance listed; settings: 101 kPa, Liquid, x2 = 0; for mass density: Pycnometric method

OCC(O)CO [glycerol]
[1]
Settings	mass density [kg/m3]	viscosity [mPa·s]
298.15 K	1257.8	943.8
303.15 K	1254.7	628.9
308.15 K	1252.2	431.9
313.15 K	1249.4	295.9
318.15 K	1245.8	185.8
323.15 K	1242.3	151.2
328.15 K	1239.3	108.4
333.15 K	1236.1	84.8
338.15 K	1232.8	62.2

OCCO [1,2-ethanediol]
[1]
Settings	mass density [kg/m3]	viscosity [mPa·s]
298.15 K	–	17.4
303.15 K	1107.1	13.8
308.15 K	1103.5	11.5
313.15 K	1100.3	9.42
318.15 K	–	8.1
323.15 K	1093.5	6.95
328.15 K	–	5.96
333.15 K	1085.6	5.22
338.15 K	1082.1	4.53

OCCO [1,2-ethanediol] + OCC(O)CO
[2]
Settings	mass density [kg/m3]	viscosity [mPa·s]
298.15 K	–	17.4
303.15 K	1107.1	13.8
308.15 K	1103.5	11.5
313.15 K	1100.3	9.42
318.15 K	–	8.1
323.15 K	1093.5	6.95
328.15 K	–	5.96
333.15 K	1085.6	5.22
338.15 K	1082.1	4.53
